What all share (format): cell-based
Assay [1] concerns Ba/F3 cells expressing EGFR-wt. Description: Growth inhibition (GI50) of Ba/F3 cells expressing EGFR-wt, Celltiter glo. The settings on record: Mus musculus, BaF3, 72 h. As for the experimental part: (§1) In this experimental example, a determination was made as to whether the compounds prepared in Examples 1-283 have the ability to inhibit the growth of Ba/F3 cells expressing EGFR-wt, del19/T790M/C797S (EGFR-DTC), L858R/T790M/C797S (EGFR-LTC), del19/T790M (EGFR-DT), and L858R/T790M (EGFR-LT) variants.
(§2) The parental Ba/F3 cell line is a population of cells that are not introduced with EGFR variants. Specifically, 100 μl of a cell line expressing each variant was plated in a 96-well plate at a density of 100,000 cells/ml. 10-point, 4-fold serial dilutions of each compound were prepared, starting at 2 mM. After 4 h, 0.5 μl of the compound (0.5% DMSO) was added, followed by incubation at 37° C. and 5% CO2 for 72 h. After incubation, the number of viable cells was measured using a Celltiter glo assay kit (Promega) and the GI50 of the compound was determined. The term “GI50” refers to the molar concentration (μM) of the compound required for 50% growth inhibition of cells.
A general note: In ATP-based viability assays light output follows the ATP content of the culture.

In assay [2] the test system is Ba/F3 cells expressing del19/T790M/C797S (EGFR-DTC). As to the kind of experiment: Growth inhibition (GI50) of Ba/F3 cells expressing del19/T790M/C797S (EGFR-DTC), Celltiter glo. Particulars: Mus musculus, BaF3, 72 h. As for the experimental part:
as §1, §2

Assay [3] concerns Ba/F3 cells expressing L858R/T790M/C797S (EGFR-LTC). As to the kind of experiment: Growth inhibition (GI50) of Ba/F3 cells expressing L858R/T790M/C797S (EGFR-LTC), Celltiter glo. The settings on record: Mus musculus, BaF3, 72 h. As to the method:
as §1, §2

The next assay deals with parental Ba/F3 cell line. As to the kind of experiment: Growth inhibition (GI50) of the parental Ba/F3 cell line (not introduced with EGFR variants), Celltiter glo. The settings on record: Mus musculus, BaF3, 72 h, parental Ba/F3 cells. As for the experimental part: as §2

Consider 17 molecules from patent publication US20240228458A1, “PYRIMIDINE DERIVATIVE HAVING PROTEIN KINASE INHIBITORY ACTIVITY, AND THERAPEUTIC PHARMACEUTICAL COMPOSITION COMPRISING SAME” (THERAPEX CO., LTD., priority 2021, published 2024).

SMILES strings stand for the structures.

As for `COc1nc(N2CCN(C3CCN(C)CC3)CC2)c(C(F)(F)F)cc1Nc1ncc(Br)c(Nc2ccc(F)cc2NS(C)(=O)=O)n1` [Example 37], the GI50 (in assay [1]; in assay [2]; in assay [3]; with parental Ba/F3 cell line) was greater than 10 µM each time.

For `COc1cc(N2CCC(N3CCC(N(C)C)C3)CC2)c(C)cc1Nc1ncc(Br)c(Nc2ccc(F)cc2NS(C)(=O)=O)n1` (centres unmarked) [Example 40, N-(2-((5-bromo-2-((4-(4-(3-(dimethylamino)pyrrolidin-1-yl)piperidin-1-yl)-2-methoxy-5-methylphenyl)amino)pyrimidin-4-yl)amino)-5-fluorophenyl)methanesulfonamide], the GI50 in assay [1] lay within 0.5 to 2 µM; in assay [2] it was 0.025 to 0.1 µM; in assay [3] it was 0.1 to 0.5 µM; with parental Ba/F3 cell line it was 2 to 10 µM.

`COc1cc(N2CCC(Nc3ccnn3C)CC2)c(C)cc1Nc1ncc(Br)c(Nc2ccc(F)cc2NS(C)(=O)=O)n1` [Example 41, N-(2-((5-bromo-2-((2-methoxy-5-methyl-4-(4-((1-methyl-1H-pyrazol-5-yl)amino)piperidin-1-yl)phenyl)amino)pyrimidin-4-yl)amino)-5-fluorophenyl)methanesulfonamide]: the GI50 is 0.5 to 2 µM in assay [1], 0.1 to 0.5 µM in assay [2], 0.5 to 2 µM in assay [3] and 2 to 10 µM with parental Ba/F3 cell line.

As for `COc1cc(N2CCC(N3CCN(C4CC4)CC3)CC2)c(C)cc1Nc1ncc(Br)c(Nc2ccc(F)cc2NS(C)(=O)=O)n1` [Example 42, N-(2-((5-bromo-2-((4-(4-(4-cyclopropylpiperazin-1-yl)piperidin-1-yl)-2-methoxy-5-methylphenyl)amino)pyrimidin-4-yl)amino)-5-fluorophenyl)methanesulfonamide], the GI50 in assay [1] was 0.5 to 2 µM; in assay [2], 0.025 to 0.1 µM; in assay [3], 0.1 to 0.5 µM; in the assay with parental Ba/F3 cell line, 0.5 to 2 µM.

With `COc1cc(N2CCC(N3CCN(C)CC3)CC2)c(C)cc1Nc1ncc(Cl)c(Nc2ccccc2CS(C)(=O)=O)n1` [Example 62], the concentration for 50% growth inhibition (GI50) fell in the range of 0.1 to 0.5 µM in assay [1], 0.025 to 0.1 µM in assay [2], 0.025 to 0.1 µM in assay [3] and 0.5 to 2 µM with parental Ba/F3 cell line.

Take `CN1CCN(C2CCN(c3ccc(Nc4ncc(Cl)c(Nc5ccccc5CS(C)(=O)=O)n4)cc3F)CC2)CC1` [Example 63]: the GI50 in assay [1] fell in the range of 0.1 to 0.5 µM; in assay [2], 0.025 to 0.1 µM; in assay [3] it was 0.025 to 0.1 µM; in the assay with parental Ba/F3 cell line, 0.025 to 0.1 µM.

Take `COc1nc(N2CCC(N3CCN(C)CC3)CC2)ccc1Nc1ncc(Cl)c(Nc2ccccc2CS(C)(=O)=O)n1` [Example 64]: the 50% growth inhibitory concentration (GI50) is 2 to 10 µM in assay [1], 0.5 to 2 µM in assay [2], 0.5 to 2 µM in assay [3] and 2 to 10 µM with parental Ba/F3 cell line.

As to `COc1cc(N2CCC(N3CCN(C)CC3)CC2)c(C)cc1Nc1ncc(Cl)c(Nc2cc(Cl)ccc2NC(C)=O)n1` [Example 65, N-(4-chloro-2-((5-chloro-2-((2-methoxy-5-methyl-4-(4-(4-methylpiperazin-1-yl)piperidin-1-yl)phenyl)amino)pyrimidin-4-yl)amino)phenyl)acetamide], the GI50 in assay [1] lay within 0.5 to 2 µM; in assay [2] it was 0.1 to 0.5 µM; in assay [3], 0.1 to 0.5 µM; in the assay with parental Ba/F3 cell line, 0.5 to 2 µM.

Regarding `COc1nc(N2CCC(N3CCN(C)CC3)CC2)c(C)cc1Nc1ncc(Cl)c(Nc2cc(Cl)ccc2NC(C)=O)n1` [Example 66, N-(4-chloro-2-((5-chloro-2-((2-methoxy-5-methyl-6-(4-(4-methylpiperazin-1-yl)piperidin-1-yl)pyridin-3-yl)amino)pyrimidin-4-yl)amino)phenyl)acetamide], the GI50 was 0.5 to 2 µM in assay [1], 0.5 to 2 µM in assay [2], 0.1 to 0.5 µM in assay [3] and 2 to 10 µM in the assay with parental Ba/F3 cell line.

In the case of `COc1cc(N2CCC(N3CCN(C)CC3)CC2)c(C)cc1Nc1ncc(Cl)c(Nc2ccccc2NC(C)=O)n1` [Example 68, N-(2-((5-chloro-2-((2-methoxy-5-methyl-4-(4-(4-methylpiperazin-1-yl)piperidin-1-yl)phenyl)amino)pyrimidin-4-yl)amino)phenyl)acetamide], the GI50 in assay [1] was 2 to 10 µM; in assay [2], 0.5 to 2 µM; in assay [3] it was 2 to 10 µM; with parental Ba/F3 cell line, 2 to 10 µM.

Turning to `CC(=O)Nc1ccccc1Nc1nc(Nc2ccc(N3CCC(N4CCN(C)CC4)CC3)c(F)c2)ncc1Cl` [Example 69, N-(2-((5-chloro-2-((3-fluoro-4-(4-(4-methylpiperazin-1-yl)piperidin-1-yl)phenyl)amino)pyrimidin-4-yl)amino)phenyl)acetamide], the GI50 in assay [1] lay in the range of 0.025 to 0.1 µM; in assay [2], 0.001 to 0.025 µM; in assay [3], 0.001 to 0.025 µM; with parental Ba/F3 cell line, 0.001 to 0.025 µM.

Regarding `COc1cc(N2CCC(N3CCN(C)CC3)CC2)c(C)cc1Nc1ncc(Cl)c(Nc2cc(Cl)c(Cl)cc2NC(C)=O)n1` [Example 71, N-(4,5-dichloro-2-((5-chloro-2-((2-methoxy-5-methyl-4-(4-(4-methylpiperazin-1-yl)piperidin-1-yl)phenyl)amino)pyrimidin-4-yl)amino)phenyl)acetamide], the concentration for 50% growth inhibition (GI50) in assay [1] is 0.1 to 0.5 µM; in assay [2], 0.1 to 0.5 µM; in assay [3], 0.1 to 0.5 µM; in the assay on parental Ba/F3 cell line it was 0.5 to 2 µM.

Turning to `COc1nc(N2CCC(N3CCN(C)CC3)CC2)ccc1Nc1ncc(Cl)c(Nc2cc(Cl)c(Cl)cc2NC(C)=O)n1` [Example 72], the GI50 in assay [1] fell in the range of 0.5 to 2 µM; in assay [2], 0.5 to 2 µM; in assay [3] it was 0.5 to 2 µM; in the assay on parental Ba/F3 cell line, 2 to 10 µM.

`CC(=O)Nc1cc(Cl)c(Cl)cc1Nc1nc(Nc2cnc(N3CCC(N4CCN(C)CC4)CC3)c(F)c2)ncc1Cl` [Example 73, N-(4,5-dichloro-2-((5-chloro-2-((5-fluoro-6-(4-(4-methylpiperazin-1-yl)piperidin-1-yl)pyridin-3-yl)amino)pyrimidin-4-yl)amino)phenyl)acetamide]: the GI50 fell in the range of 0.5 to 2 µM in assay [1], 0.5 to 2 µM in assay [2], 0.5 to 2 µM in assay [3] and 2 to 10 µM in the assay on parental Ba/F3 cell line.

On to `CC(=O)Nc1cc(Cl)c(Cl)cc1Nc1nc(Nc2ccc(N3CCOCC3)nc2)ncc1Cl` [Example 74, N-(4,5-dichloro-2-((5-chloro-2-((6-morpholinopyridin-3-yl)amino)pyrimidin-4-yl)amino)phenyl)acetamide], for which the GI50 was greater than 10 µM in assay [1], 2 to 10 µM in assay [2], 2 to 10 µM in assay [3] and greater than 10 µM in the assay with parental Ba/F3 cell line.

With `COc1cc(N2CCC(N3CCN(C)CC3)CC2)ccc1Nc1ncc(Cl)c(Nc2cc(Cl)c(Cl)cc2NC(C)=O)n1` [Example 75, N-(4,5-dichloro-2-((5-chloro-2-((2-methoxy-4-(4-(4-methylpiperazin-1-yl)piperidin-1-yl)phenyl)amino)pyrimidin-4-yl)amino)phenyl)acetamide], the GI50 (in assay [1]; in assay [2]; in assay [3]; in the assay on parental Ba/F3 cell line) was 0.1 to 0.5 µM in each case.

In the case of `CC(=O)Nc1cc(Cl)c(Cl)cc1Nc1nc(Nc2ccc(N3CCC(N4CCN(C)CC4)CC3)c(F)c2)ncc1Cl` [Example 76, N-(4,5-dichloro-2-((5-chloro-2-((3-fluoro-4-(4-(4-methylpiperazin-1-yl)piperidin-1-yl)phenyl)amino)pyrimidin-4-yl)amino)phenyl)acetamide], the GI50 (in assay [1]; in assay [2]; in assay [3]; in the assay on parental Ba/F3 cell line) was 0.1 to 0.5 µM each time.

In general, GI50 refers to the concentration at which growth is held to half of that of the control.
